{"source": "patent US6576784B1", "about": "“Antiviral agents” (Yeda Research and Development Co. Ltd., priority 1993, dated 2003)", "key": {"[1]": {"test": "Quantum yield of singlet oxygen formation on irradiation in liposomes", "type": "physicochemical", "settings": "for Quantum yields of singlet oxygen (φΔ) formed on irradiation of hypericin analogs in liposomes: soya liposomes, DPBF, light of 420 nm; for singlet oxygen formed on irradiation in liposomes (in words): irradiation with visible light, bound to liposomes"}, "[2]": {"test_system": "non-enveloped viruses such as polio and rhino viruses", "settings": "Tang et al., Antiviral Res. 13:313 (1990); cited from earlier work"}, "Murine Friend Virus": {"test_system": "Murine Friend Virus", "test": "Inhibition of Friend virus splenomegaly in BALB/c mice", "type": "in vivo", "settings": "single intravenous dose within 1 hour of infection, FIG. 2", "source_text": "Antiretroviral Activity of Hypericin Analogs Against Murine Friend Virus in BALB/c Mice\nMice infected with Friend virus (FV) develop a virus induced erythroleukemia whose early manifestation is a 4-8 time enlargement of the spleen size (splenomegaly) within 10 days after infection with the virus. Inhibition of splenomegaly can be used to quantitate the antiretroviral activity of various compounds in vivo. In this experiment, mice, in groups of 3, were infected with Friend virus and hypericin analogs (0.5 ml of solution in PBS) were then administered intravenously within 1 hour of the infection in a single dose of 1, 10, 50 and 150 μg per mouse."}, "[3]": {"test_system": "Murine Radiation Leukemia Virus (Rad LV)", "test": "Direct inactivation of murine radiation leukemia virus measured by inhibition of virus particle derived reverse transcriptase activity", "type": "biochemical", "settings": "0.01 μg/ml; virus incubated with compound on ice 30 min; FIG. 1", "method": "Determination of Antiretroviral Activity of Hypericin Analogs by Monitoring the Direct Inactivation of Murine Radiation Leukemia Virus (Rad LV) Measured by the Inhibition of Virus Particle Derived Reverse Transcriptase Activity\nVirus particles released into the growth medium of the AQR lymphoblastoid cell line which is infected with and producing RadLV, were exposed to hypericin and hypericin analogs. The virus and the substrate were incubated on ice for a period of 30 min., after which time the virus was precipitated by ultracentrifugation at 40,000 rpm for 1 hour in a Beckman ultracentrifuge, and analyzed for reverse transcriptase according to Stephenson et al., Virology 48:749 (1972). The results shown in FIG. 1 are expressed as counts per minute of tritiated-thymidine incorporation."}, "[4]": {"settings": "G. Lavie et al, J.N.Y. Acad. Sci. 616:556, 1990; cited from earlier work"}}, "data": [{"compound": "2-(2-Methoxyethoxy)ethyl Ester Analog of Hypericin [Example 5]", "values": [{"measurement": "Quantum yields of singlet oxygen (φΔ) formed on irradiation of hypericin analogs in liposomes", "setting": "[1]", "result": 0.1}]}, {"compound": "2-Methoxyethyl Ester Analog of Hypericin [Example 4]", "values": [{"measurement": "Quantum yields of singlet oxygen (φΔ) formed on irradiation of hypericin analogs in liposomes", "setting": "[1]", "result": 0.35}]}, {"compound": "Cc1cc(O)c2c(=O)c3c(O)cc(O)c4c5c(O)cc(O)c6c(=O)c7c(O)cc(C)c8c1c2c(c34)c(c78)c65", "note": "[hypericin, Hypericin, reference compound]", "values": [{"measurement": "singlet oxygen formed on irradiation in liposomes (in words)", "setting": "[1]", "result": "comparatively high"}, {"measurement": "activity against non-enveloped viruses (in words)", "setting": "[2]", "result": "not active"}]}, {"compound": "Methyl Ester Analog of Hypericin [Example 1]", "values": [{"measurement": "Quantum yields of singlet oxygen (φΔ) formed on irradiation of hypericin analogs in liposomes", "setting": "[1]", "result": 0.38}, {"measurement": "inhibition of splenomegaly", "setting": "Murine Friend Virus; 10 μg per mouse", "result": 65, "unit": "%"}, {"measurement": "antiviral activity (inhibition of virus particle derived reverse transcriptase activity, tritiated-thymidine incorporation)", "setting": "[3]", "result": "antiviral activity"}]}, {"compound": "n-butyl Ester Analog of Hypericin [Example 3]", "values": [{"measurement": "inhibition of splenomegaly", "setting": "Murine Friend Virus; 150 μg per mouse", "result": 70, "unit": "%"}, {"measurement": "antiviral activity (inhibition of virus particle derived reverse transcriptase activity, tritiated-thymidine incorporation)", "setting": "[3]", "result": "antiviral activity"}]}, {"compound": "n-propyl Ester Analog of Hypericin [Example 2]", "values": [{"measurement": "inhibition of splenomegaly", "setting": "Murine Friend Virus; 10 μg per mouse", "result": 47, "unit": "%"}]}, {"compound": "octahydroxy hypericin [R1, R2 = OH, reference compound]", "values": [{"measurement": "singlet oxygen formed on irradiation in liposomes (in words)", "setting": "[1]", "result": "did not produce detectable yields of singlet oxygen"}, {"measurement": "Quantum yields of singlet oxygen (φΔ) formed on irradiation of hypericin analogs in liposomes", "setting": "[1]", "result": "<0.01"}, {"measurement": "antiviral activity (in words)", "setting": "[4]", "result": "very weak antiviral activity"}]}]}
